Holding throughout (format): functional
Assay [1] relates to Streptococcus pneumoniae. In words: Antibacterial activity against penicillin-resistant Streptococcus pneumoniae after 16 hrs by agar dilution method. In general terms: In agar dilution the substance is mixed into plates at graded concentrations.
Assay [2] has as its system Staphylococcus epidermidis. As to the kind of experiment: Antibacterial activity against methicillin-sensitive Staphylococcus epidermidis after 16 hrs by agar dilution method.
The subject of assay [3] is Staphylococcus aureus. As to the kind of experiment: Antibacterial activity against Staphylococcus aureus […] after 16 hrs by agar dilution method.
Assay [4] concerns Staphylococcus aureus. As to the kind of experiment: Antibacterial activity against methicillin-resistant Staphylococcus aureus after 16 hrs by agar dilution method.
Assay [5] has as its system Staphylococcus aureus. In words: Antibacterial activity against methicillin-sensitive Staphylococcus aureus after 16 hrs by agar dilution method.
Assay [6] concerns Staphylococcus epidermidis. In words: Antibacterial activity against methicillin-resistant Staphylococcus epidermidis after 16 hrs by agar dilution method.

Values after ≈ are worked out from the molar mass of the structure shown.

Drawing on ChEMBL document CHEMBL3286253, “Design, synthesis, and structure-activity relationship studies of novel thioether pleuromutilin derivatives as potent antibacterial agents” (J Med Chem, 2014), this text covers MIC for eleven compounds.

One may read the MIC as the least concentration at which growth counts as inhibited. A lower MIC goes with a more susceptible organism.

For `C=C[C@]1(C)C[C@@H](OC(=O)CSc2cccs2)[C@]2(C)[C@H](C)CC[C@]3(CCC(=O)[C@H]32)[C@@H](C)[C@@H]1O`, the minimum inhibitory concentration (MIC) is 0.125 µg/mL (≈ 0.262 µM) in assay [1]; 0.25 µg/mL (≈ 0.524 µM) in assay [2]; 0.5 µg/mL (≈ 1.05 µM) in assay [3]; 0.5 µg/mL (≈ 1.05 µM) in assay [4]; 0.5 µg/mL (≈ 1.05 µM) in assay [5]; 0.25 µg/mL (≈ 0.524 µM) in assay [6].
Take `C=C[C@]1(C)C[C@@H](OC(=O)CSc2nccs2)[C@]2(C)[C@H](C)CC[C@]3(CCC(=O)[C@H]32)[C@@H](C)[C@@H]1O`: the MIC in assay [1] turned out to be 0.5 µg/mL (≈ 1.05 µM); in assay [2], 0.25 µg/mL (≈ 0.523 µM); in assay [3], 0.5 µg/mL (≈ 1.05 µM); in assay [4], 0.5 µg/mL (≈ 1.05 µM); in assay [5], 0.5 µg/mL (≈ 1.05 µM); in assay [6], 0.25 µg/mL (≈ 0.523 µM).
As for `C=C[C@]1(C)C[C@@H](OC(=O)CSc2cnccn2)[C@]2(C)[C@H](C)CC[C@]3(CCC(=O)[C@H]32)[C@@H](C)[C@@H]1O`, the MIC in assay [1] turned out to be 0.125 µg/mL (≈ 0.264 µM); in assay [2], 0.125 µg/mL (≈ 0.264 µM); in assay [3], 0.25 µg/mL (≈ 0.529 µM); in assay [4], 0.125 µg/mL (≈ 0.264 µM); in assay [5], 0.125 µg/mL (≈ 0.264 µM); in assay [6], 0.125 µg/mL (≈ 0.264 µM).
For `C=C[C@]1(C)C[C@@H](OC(=O)CSc2ncccn2)[C@]2(C)[C@H](C)CC[C@]3(CCC(=O)[C@H]32)[C@@H](C)[C@@H]1O`, the MIC worked out at 0.125 µg/mL (≈ 0.264 µM) in assay [1]; 0.125 µg/mL (≈ 0.264 µM) in assay [2]; 0.125 µg/mL (≈ 0.264 µM) in assay [3]; 0.063 µg/mL (≈ 0.133 µM) in assay [4]; 0.125 µg/mL (≈ 0.264 µM) in assay [5]; 0.063 µg/mL (≈ 0.133 µM) in assay [6].
`C=C[C@]1(C)C[C@@H](OC(=O)CSc2cccnn2)[C@]2(C)[C@H](C)CC[C@]3(CCC(=O)[C@H]32)[C@@H](C)[C@@H]1O`: the MIC in assay [1] was found to be 0.125 µg/mL (≈ 0.264 µM); in assay [2] it was 0.063 µg/mL (≈ 0.133 µM); in assay [3], 0.25 µg/mL (≈ 0.529 µM); in assay [4], 0.25 µg/mL (≈ 0.529 µM); in assay [5], 0.125 µg/mL (≈ 0.264 µM); in assay [6] it was 0.063 µg/mL (≈ 0.133 µM).
`C=C[C@]1(C)C[C@@H](OC(=O)CSc2cccnc2)[C@]2(C)[C@H](C)CC[C@]3(CCC(=O)[C@H]32)[C@@H](C)[C@@H]1O`: the MIC in assay [1] was found to be 0.125 µg/mL (≈ 0.265 µM); in assay [2] it was 0.125 µg/mL (≈ 0.265 µM); in assay [3], 0.25 µg/mL (≈ 0.53 µM); in assay [4], 0.125 µg/mL (≈ 0.265 µM); in assay [5], 0.125 µg/mL (≈ 0.265 µM); in assay [6], 0.25 µg/mL (≈ 0.53 µM).
For the compound `C=C[C@]1(C)C[C@@H](OC(=O)CSc2ccncc2)[C@]2(C)[C@H](C)CC[C@]3(CCC(=O)[C@H]32)[C@@H](C)[C@@H]1O`, the MIC in assay [1] came out at 0.063 µg/mL (≈ 0.134 µM); in assay [2], 0.063 µg/mL (≈ 0.134 µM); in assay [3], 0.031 µg/mL (≈ 0.0657 µM); in assay [4], 0.063 µg/mL (≈ 0.134 µM); in assay [5], 0.063 µg/mL (≈ 0.134 µM); in assay [6], 0.063 µg/mL (≈ 0.134 µM).
Take `C=C[C@]1(C)C[C@@H](OC(=O)CSc2cncc(C(=O)OC)c2)[C@]2(C)[C@H](C)CC[C@]3(CCC(=O)[C@H]32)[C@@H](C)[C@@H]1O`: the MIC was found to be 0.25 µg/mL (≈ 0.472 µM) in assay [1]; 1 µg/mL (≈ 1.89 µM) in assay [2]; 1 µg/mL (≈ 1.89 µM) in assay [3]; 0.125 µg/mL (≈ 0.236 µM) in assay [4]; 1 µg/mL (≈ 1.89 µM) in assay [5]; 0.25 µg/mL (≈ 0.472 µM) in assay [6].
With `C=C[C@]1(C)C[C@@H](OC(=O)CSc2cncc(OC)c2)[C@]2(C)[C@H](C)CC[C@]3(CCC(=O)[C@H]32)[C@@H](C)[C@@H]1O`, the MIC in assay [1] is 0.125 µg/mL (≈ 0.249 µM); in assay [2] it was 2 µg/mL (≈ 3.99 µM); in assay [3] it was 1 µg/mL (≈ 1.99 µM); in assay [4], 0.125 µg/mL (≈ 0.249 µM); in assay [5] it was 0.125 µg/mL (≈ 0.249 µM); in assay [6] it was 0.125 µg/mL (≈ 0.249 µM).
Turning to `C=C[C@]1(C)C[C@@H](OC(=O)CSc2cncc(F)c2)[C@]2(C)[C@H](C)CC[C@]3(CCC(=O)[C@H]32)[C@@H](C)[C@@H]1O`, the minimal inhibitory concentration (MIC) worked out at 0.25 µg/mL (≈ 0.511 µM) in assay [1]; 0.125 µg/mL (≈ 0.255 µM) in assay [2]; 0.5 µg/mL (≈ 1.02 µM) in assay [3]; 0.25 µg/mL (≈ 0.511 µM) in assay [4]; 0.25 µg/mL (≈ 0.511 µM) in assay [5]; 0.25 µg/mL (≈ 0.511 µM) in assay [6].
On to `C=C[C@]1(C)C[C@@H](OC(=O)CSc2ccc(CO)nc2)[C@]2(C)[C@H](C)CC[C@]3(CCC(=O)[C@H]32)[C@@H](C)[C@@H]1O`, for which the MIC in assay [1] was 0.063 µg/mL (≈ 0.126 µM); in assay [2], 0.25 µg/mL (≈ 0.498 µM); in assay [3], 0.5 µg/mL (≈ 0.997 µM); in assay [4], 0.031 µg/mL (≈ 0.0618 µM); in assay [5], 0.063 µg/mL (≈ 0.126 µM); in assay [6] it was 0.031 µg/mL (≈ 0.0618 µM).
